In patent US20180148418A1, “AMIDO-SUBSTITUTED CYCLOHEXANE DERIVATIVES” (Bayer Pharma Aktiengesellschaft, priority 2015, published 2018):

How the values were obtained:
[1] = test system: HEK293 cells cotransfected with the FOP control vector; assay: HEK293 FOP assay (control reporter with non-functional TCF elements); format: cell-based; conditions: Homo sapiens, 16 hours
In short: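 Compound series from 50 μM down to 15 nM, prediluted in DMSO then 50-fold into CAFTY buffer (pH 7.4, 2 mM Ca2+, 0.01% BSA), tested alongside TOP cells on a Geneticin-selected HEK293 FOP line whose TCF elements are replaced by a random sequence; recombinant human Wnt-3a applied at 2500-5 ng/ml.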

TNKS2 = biological target: T1, TNKS2 (Homo sapiens, UniProt Q9H2K2); assay: TNKS2 Assay B (auto-parsylation, [3H]-NAD+ SPA); format: biochemical; conditions: 6 nM TNKS2, auto-parsylation, over night at room temperature
T1 construct: purchased BPS Bioscience, San Diego, USA 80572 (TNKS2 Histone Ribosylation Assay Kit)
T1 sequence (Q9H2K2 1-1166): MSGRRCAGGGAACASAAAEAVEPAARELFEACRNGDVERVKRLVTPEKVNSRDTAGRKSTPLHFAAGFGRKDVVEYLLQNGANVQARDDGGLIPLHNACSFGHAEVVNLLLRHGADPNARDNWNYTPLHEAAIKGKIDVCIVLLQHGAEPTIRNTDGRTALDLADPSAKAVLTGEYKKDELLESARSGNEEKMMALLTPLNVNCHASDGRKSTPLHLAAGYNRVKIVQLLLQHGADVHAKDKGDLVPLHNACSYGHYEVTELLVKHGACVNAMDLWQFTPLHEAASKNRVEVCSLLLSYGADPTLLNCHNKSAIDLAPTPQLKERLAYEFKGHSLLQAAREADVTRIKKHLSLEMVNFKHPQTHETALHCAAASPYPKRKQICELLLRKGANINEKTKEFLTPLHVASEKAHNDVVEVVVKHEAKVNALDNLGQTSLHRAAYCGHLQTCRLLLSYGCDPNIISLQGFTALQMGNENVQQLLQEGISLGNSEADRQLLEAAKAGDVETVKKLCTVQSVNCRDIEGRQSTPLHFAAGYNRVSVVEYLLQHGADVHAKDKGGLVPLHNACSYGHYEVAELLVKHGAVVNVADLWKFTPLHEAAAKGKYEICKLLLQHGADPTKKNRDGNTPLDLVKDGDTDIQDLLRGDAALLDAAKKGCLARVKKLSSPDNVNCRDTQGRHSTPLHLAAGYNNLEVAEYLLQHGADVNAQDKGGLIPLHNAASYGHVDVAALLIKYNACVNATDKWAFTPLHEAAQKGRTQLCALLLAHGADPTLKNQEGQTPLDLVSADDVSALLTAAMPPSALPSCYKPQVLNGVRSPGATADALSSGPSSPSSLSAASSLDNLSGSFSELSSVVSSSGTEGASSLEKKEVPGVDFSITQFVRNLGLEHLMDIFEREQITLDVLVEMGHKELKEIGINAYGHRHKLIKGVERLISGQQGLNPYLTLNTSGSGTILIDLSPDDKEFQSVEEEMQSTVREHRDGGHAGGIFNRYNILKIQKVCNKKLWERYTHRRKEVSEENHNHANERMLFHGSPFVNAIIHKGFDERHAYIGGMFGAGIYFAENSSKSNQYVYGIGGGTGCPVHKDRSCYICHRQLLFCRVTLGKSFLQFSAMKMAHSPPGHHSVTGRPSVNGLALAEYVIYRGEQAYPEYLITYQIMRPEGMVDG

Row | SMILES | IC50 (TNKS2) [nM] | IC50 [1] [nM]
1 | Cc1cc(C)n2ncc(C(=O)N[C@H]3CC[C@@]4(CCN(c5ccc(F)cc5)C4=O)CC3)c2n1 [Example 211, N-[(trans)-2-(4-fluorophenyl)-1-oxo-2-azaspiro[4.5]dec-8-yl]-5,7-di methyl pyrazolo[1,5-a]pyrimidine-3-carboxamide] | 74 | 25000
2 | CC(C)(C)OC(=O)N1CCN(c2ccn3ncc(C(=O)N[C@H]4CC[C@@]5(CCN(c6ccc(F)cc6Cl)C5=O)CC4)c3n2)CC1 [Example 225, tert-butyl 4-(3-{[(trans)-2-(2-chloro-4-fluorophenyl)-1-oxo-2-azaspiro[4.5]dec-8-yl]carbamoyl}pyrazolo[1,5-a]pyrimidin-5-yl)piperazine-1-carboxylate] | 2.5 | ≥ 50000
3 | CCNC(=O)c1nc[nH]c1C(=O)N[C@H]1CC[C@H](C(=O)Nc2ccc(F)cc2Cl)CC1 [Example 15, N^5-{trans-4-[(2-chloro-4-fluorophenyl)carbamoyl]cyclohexyl}-N^4-ethyl-1H-imidazole-4,5-dicarboxamide] | 42 | ≥ 50000
4 | Cc1ccn2ncc(C(=O)N[C@H]3CC[C@@]4(CCN(c5ccc(F)cc5Cl)C4=O)CC3)c2n1 [Example 221, N-[(trans)-2-(2-chloro-4-fluorophenyl)-1-oxo-2-azaspiro[4.5]dec-8-yl]-5-methylpyrazolo[1,5-a]pyrimidine-3-carboxamide] | 3.8 | 18000
5 | O=C(N[C@H]1CC[C@@]2(CCN(c3cccc(Cl)c3)C2=O)CC1)c1cnc2cccnn12 [Example 269, N-[(trans)-2-(3-chlorophenyl)-1-oxo-2-azaspiro[4.5]dec-8-yl]imidazo[1,2-b]pyridazine-3-carboxamide] | 290 | ≥ 50000
6 | Cc1ccnc2c(C(=O)N[C@H]3CC[C@@]4(CCN(c5ccc(F)cc5Cl)C4=O)CC3)cnn12 [Example 222, N-[(trans)-2-(2-chloro-4-fluorophenyl)-1-oxo-2-azaspiro[4.5]dec-8-yl]-7-methylpyrazolo[1,5-a]pyrimidine-3-carboxamide] | 6.5 | ≥ 50000
7 | CNC(=O)c1nc[nH]c1C(=O)N[C@H]1CC[C@H](C(=O)Nc2cc(C(C)(C)O)ccc2Cl)CC1 [Example 170, N^5-(trans-4-{[2-chloro-5-(2-hydroxypropan-2-yl)phenyl]carbamoyl}cyclohexyl)-N^4-methyl-1H-imidazole-4,5-dicarboxamide] | 1500 | ≥ 50000
8 | O=C(N[C@H]1CC[C@@]2(CCN(c3ccc(F)cc3Cl)C2=O)CC1)c1cnn2c(C(F)(F)F)ccnc12 [Example 233, N-[(trans)-2-(2-chloro-4-fluorophenyl)-1-oxo-2-azaspiro[4.5]dec-8-yl]-7-(trifluoromethyl)pyrazolo[1,5-a]pyrimidine-3-carboxamide] | 25 | ≥ 50000

More lines, in order of falling IC50 (TNKS2), values ahead:

Row | IC50 (TNKS2) [nM] | SMILES | IC50 [1] [nM]
9 | 510 | CNC(=O)c1nc[nH]c1C(=O)N[C@H]1CC[C@H](C(=O)N(C)c2ccc(F)cc2)CC1 [Example 172, N^5-{trans-4-[(4-fluorophenyl)(methyl)carbamoyl]cyclohexyl}-N^4-methyl-1H-imidazole-4,5-dicarboxamide] | ≥ 50000
10 | 180 | CNC(=O)c1nc[nH]c1C(=O)N[C@H]1CC[C@H](C(=O)N(C)c2ccc(F)cc2Cl)CC1 [Example 173, N^5-{trans-4-[(2-chloro-4-fluorophenyl)(methyl)carbamoyl]cyclohexyl}-N^4-methyl-1H-imidazole-4,5-dicarboxamide] | ≥ 50000
11 | 89 | CNC(=O)c1nc[nH]c1C(=O)N[C@H]1CC[C@@]2(CCN(c3cccc(Cl)c3)C2=O)CC1 [Example 276, N^5-[(trans)-2-(3-chlorophenyl)-1-oxo-2-azaspiro[4.5]dec-8-yl]-N^4-methyl-1H-imidazole-4,5-dicarboxamide] | 32000
12 | 2.2 | CNc1ccn2ncc(C(=O)N[C@H]3CC[C@@]4(CCN(c5ccc(F)cc5Cl)C4=O)CC3)c2n1 [Example 215, N-[(trans)-2-(2-chloro-4-fluorophenyl)-1-oxo-2-azaspiro[4.5]dec-8-yl]-5-(methylamino)pyrazolo[1,5-a]pyrimidine-3-carboxamide] | ≥ 50000
